# According to patent publication EP0999856B1, “RADIOPHARMACEUTICALS FOR IMAGING INFECTION AND INFLAMMATION” (Bristol-Myers Squibb Pharma Company, priority 1996, dated 1998):
# pKi: −log10 of the molar value.
# Target: PMN LTB4 receptor (Homo sapiens, UniProt Q15722)
# Assay: LTB4 Human Neutrophil (PMN) Binding Assay
# Method: Heparinized blood was placed on a ficol gradient followed by its sedimentation with dextran. […] The PMN solution was adjusted to achieve a concentration of 8 X 10^6 PMN/ml. […] Very briefly, the assay was performed as follows; [3H]LTB4 (1 nM) and test agent were placed into a 96 well microplate with filters (0.65 µm pore size). PMN solution (8 x 10^6/ml) was added and the microplate incubated for 10 min at 4° C. The microplate was then placed on Millipore filtration system; the wells washed with cold saline (3 x) and dried. The filters were removed from the microplate; placed into scintillation fluid and the concentration of [3H]LTB4 determined.
# Chain of PMN LTB4 receptor (Q15722 whole entry): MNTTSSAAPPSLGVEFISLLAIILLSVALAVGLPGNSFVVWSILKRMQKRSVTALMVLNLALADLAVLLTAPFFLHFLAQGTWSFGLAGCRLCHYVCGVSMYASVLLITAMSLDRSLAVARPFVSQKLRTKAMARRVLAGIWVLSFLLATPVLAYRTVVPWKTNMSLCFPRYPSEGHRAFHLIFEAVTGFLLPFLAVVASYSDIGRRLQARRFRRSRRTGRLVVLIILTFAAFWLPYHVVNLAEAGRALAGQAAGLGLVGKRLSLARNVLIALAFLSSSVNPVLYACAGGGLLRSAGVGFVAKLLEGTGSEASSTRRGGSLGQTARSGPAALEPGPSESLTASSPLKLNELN
smiles,measurement,value
CCc1cc(-c2ccc(F)cc2)c(O)cc1OCCCCC(C)(C)CNC(=O)c1ccc(NN=Cc2ccccc2)nc1 [IIa],pKi,8.10
